Like-named read-outs stand apart in the source and are kept apart here.
Experiments:
[1] = Study-2 single-dose pharmacokinetics (plasma); format: in vivo, human; settings: for AUC(0-t) / half-life / Cmax / Tmax / AUC / MRT / Vd/F: human, plasma, oral; for Vd/F: read-out: Vz/F
Description: These were phase I, randomised, double-blind, placebo-controlled studies designed to evaluate the safety, tolerability, PK and PD profiles of seletalisib following oral administration of single ascending doses and multiple ascending doses. Study-1 was a first-in-human, double-blind (sponsor-, investigator- and subject-blind) study that had two parts: Part-A evaluated seletalisib (single ascending doses) in healthy adults (including evaluation of food effects; Table 1); Part-B evaluated seletalisib (multiple ascending doses) in healthy adults and subjects with mild-to-moderate psoriasis. Study-2 was also a double-blind study of seletalisib (single and multiple ascending doses) in healthy subjects, which investigated higher doses.
Plasma concentrations of seletalisib were measured by high-performance liquid chromatography with tandem mass spectrometry (see Online Resource S1 for further details). The following PK parameters were determined in each study: AUC for seletalisib, maximum observed plasma concentration of seletalisib after a single dose (Cmax) and at steady-state (Cmaxss), time of occurrence of Cmax (tmax, obtained directly from the observed plasma concentration-time curves), minimum observed plasma concentration of seletalisib at steady-state immediately before the next dose would be administered (Ctrough), apparent terminal half-life, apparent volume of distribution after single dosing (Vz/F) and at steady-state (Vzss/F) and apparent total body clearance after single dosing (CL/F) and at steady-state (CLss/F). Accumulation factor based on AUC(0–24) [R(AUC)] and accumulation factor based on Cmax [R(Cmax)] were determined on multiple dose day 14. The following study-specific PK parameters were also determined: Study-1, total amount of seletalisib excreted in urine (Ae), renal clearance (CLr) and fraction of drug excreted in urine; Study-2, AUC(0–10) in BID dose groups, terminal elimination rate constant in plasma (λz), mean residence time (MRT) and linearity factor (LF [AUC(0–24)ss/AUC]).
Methods for the calculation of seletalisib PK parameters are detailed in Online Resource S1.
Seletalisib PK parameters were calculated via non-compartmental analysis methods from the individual concentration-time data using Phoenix WinNonlin version 6.2 (Certara, Princeton, NJ, USA). Urine (Study-1 only) and plasma PK parameters of seletalisib were reported for each subject and summarised by study part and dose group. Geometric mean and percentage geometric coefficient of variation (GeoCV%) were reported for all parameters except for tmax, which was reported using median and range. Dose proportionality for AUC and Cmax at Day_1 (Study-1 [Part-A & Part-B]; Study-2, single ascending dose-Day_1) and at steady state at Day_14 (Study-1 [Part-B]; Study-2, multiple ascending dose-Day_14) was examined via the power model and reported graphically. In Study-1, an assessment of food effect (fed versus fasted) was made for Cmax and AUC from the data for subjects who received the same dose in fed and fasted states in Part-A.

[2] = Study-1 Part-A safety/tolerability (adverse events), single doses; settings: for Deaths: Study-1 Part-A
Procedure: Study-1 (Part-A), comprised single doses of seletalisib (1, 5, 10 and 15 mg) administered to healthy subjects using an alternating panel approach (Table 1). Panel 1 consisted of 17 subjects and panel 2 of 18 subjects. In each panel subjects were randomised to one of three sequences and received different ascending doses of seletalisib or placebo over three (panel 1) or two (panel 2) periods (Table 1). In the third period of panel 1, a preliminary assessment of food effect was made, all subjects received seletalisib 5 mg 30 min after a high-fat, high-calorie meal.
Adverse events (AEs), serious AEs (SAEs), routine clinical laboratory parameters, vital signs and ECGs were monitored throughout the study periods and for ≤7 days post-administration of final-dose of seletalisib/placebo. The potential for seletalisib to cause gastrointestinal (GI) tract adverse effects was assessed by careful monitoring of subject reports of AEs such as abdominal pain, bloating, nausea, vomiting and alteration of bowel function (e.g. diarrhoea, constipation or bleeding). A formal safety review was conducted before each dose escalation. In Study-1 (Part-B), the potential for seletalisib to interfere with insulin signalling was assessed by monitoring blood glucose and C-peptide levels as part of the standard laboratory tests and by performance of oral glucose tolerance tests, measuring glucose and C-peptide levels, pre-dose and during exposure in all cohorts.
In each study, the primary population for analysis was the full analysis set (FAS), which comprised all subjects who had received ≥1 dose of seletalisib or placebo. PK analysis was performed on the PK per-protocol set (PK-PPS), which was a subset of the FAS consisting of subjects with no important protocol deviations likely to affect PK variables who received seletalisib; subjects who received placebo were excluded from this analysis. In Study-1 and Study-2, sample sizes of 57 and 36 subjects, respectively, were considered sufficient to permit assessment of the safety and tolerability of seletalisib and were not based on statistical considerations of power and sample size. In Study-1 (Part-A), a panel size of 15 subjects was selected to achieve good estimates of the PK/PD parameters.

[3] = test system: basophil degranulation; experiment: Study-1 ex vivo basophil degranulation (anti-IgE-driven CD63 expression, whole blood); format: in vivo, human; settings: Study-1 Part-A, single doses; very high variability
Procedure: Subjects were assessed for basophil degranulation following stimulation at multiple time points, as described in Online Resource S1.
Degranulation of basophils was determined in whole blood by monitoring increased cell surface CD63 expression utilizing flow cytometry in an ex vivo stimulation assay driven by anti-IgE (Study-1) or anti-FcεR1 (Study-2). Briefly, blood was collected in lithium-heparin tubes (BD Biosciences, Oxford, UK) and stimulated with IgE or FcεRI cross-linking antibodies (eBiosciences, Hatfield, UK) for 12 min at 37°C. Following red blood cell lysis by addition of BD FACSlyse (BD Biosciences, Oxford, UK), samples were centrifuged and the supernatant discarded. The cell pellet was washed in PBS and re-suspended in fixative (5% formaldehyde in PBS). CD63 expression was determined on basophils (side-scatter low, CD123+HLA-DR-) and detected by flow cytometry using the BD antibody cocktail containing CD63, CD123, and anti-HLA-DR.

[4] = Study-2 single dose, 30 mg QD cohort, geo mean (GeoCV%)
[5] = Study-2 single dose, 45 mg QD cohort, geo mean (GeoCV%)
[6] = Study-2 single dose, 60 mg QD cohort, geo mean (GeoCV%)
[7] = Study-2 single dose, 90 mg QD cohort, geo mean (GeoCV%)

With `[O-][n+]1cccc(-c2nc3c(Cl)cccc3cc2[C@@H](Nc2ncnc3cccnc23)C(F)(F)F)c1` [Seletalisib, seletalisib] the CL/F [1, 4] was 2.65 (30.4) L/h, the CL/F [1, 5] was 2.61 (33.0) L/h and the CL/F [1, 6] was 2.19 (32.3) L/h. The CL/F [1, 7] was 2.58 (33.3) L/h, the AUC(0-t) ([1]; 30 mg, Study-2 single dose, 30 mg QD cohort, geo mean (GeoCV%), read-out: AUC(0–24)) was 6490 ng·h/mL and the AUC(0-t) ([1]; 30 mg, Study-2 single dose, 30 mg QD cohort, geo mean (GeoCV%), read-out: AUC(0–t)) was 10200 ng·h/mL. The AUC(0-t) ([1]; 30 mg, Study-2 single-dose part, 30 mg BID cohort, geo mean (GeoCV%), read-out: AUC(0–10)) was 3500 ng·h/mL, the AUC(0-t) ([1]; 45 mg, Study-2 single dose, 45 mg QD cohort, geo mean (GeoCV%), read-out: AUC(0–24)) was 9280 ng·h/mL and the AUC(0-t) ([1]; 45 mg, Study-2 single dose, 45 mg QD cohort, geo mean (GeoCV%), read-out: AUC(0–t)) was 15100 ng·h/mL. It also gave an AUC(0-t) ([1]; 60 mg, Study-2 single dose, 60 mg QD cohort, geo mean (GeoCV%), read-out: AUC(0–24)) of 16300 ng·h/mL, an AUC(0-t) ([1]; 60 mg, Study-2 single dose, 60 mg QD cohort, geo mean (GeoCV%), read-out: AUC(0–t)) of 25100 ng·h/mL and an AUC(0-t) ([1]; 90 mg, Study-2 single dose, 90 mg QD cohort, geo mean (GeoCV%), read-out: AUC(0–24)) of 19700 ng·h/mL. The AUC(0-t) ([1]; 90 mg, Study-2 single dose, 90 mg QD cohort, geo mean (GeoCV%), read-out: AUC(0–t)) was 31200 ng·h/mL, the half-life ([1]; Study-2, range across dose groups, read-out: geometric mean t1/2) was 18.1 to 22.4 h and the Cmax ([1]; Study-2, single dose, range across groups, read-out: geometric mean Cmax) was 517 to 1510 ng/mL. For the same compound, the Tmax ([1]; Study-2, single dose, range across groups, read-out: median tmax) was 3 to 4 h, the AUC [1, 4] was 11300 ng·h/mL and the MRT [1, 4] was 22.1 h. It also gave a Cmax ([1]; Study-2 single dose, 30 mg QD cohort, geo mean (GeoCV%), read-out: Cmax) of 517 ng/mL, a Vd/F [1, 4] of 74.4 L and a half-life ([1]; Study-2 single dose, 30 mg QD cohort, geo mean (GeoCV%), read-out: t1/2 (converted)) of 19.5 h. For the same compound, the Tmax ([1]; Study-2 single dose, 30 mg QD cohort, median (range), read-out: tmax) was 4 h, the AUC [1, 5] was 17300 ng·h/mL and the MRT [1, 5] was 23 h. It also gave a Cmax ([1]; Study-2 single dose, 45 mg QD cohort, geo mean (GeoCV%), read-out: Cmax) of 691 ng/mL, a Vd/F [1, 5] of 84.2 L and a half-life ([1]; Study-2 single dose, 45 mg QD cohort, geo mean (GeoCV%), read-out: t1/2 (converted)) of 22.4 h. The Tmax ([1]; Study-2 single dose, 45 mg QD cohort, median (range), read-out: tmax) was 4 h, the AUC [1, 6] was 27400 ng·h/mL and the MRT [1, 6] was 21.5 h. The Cmax ([1]; Study-2 single dose, 60 mg QD cohort, geo mean (GeoCV%), read-out: Cmax) was 1250 ng/mL, the Vd/F [1, 6] was 57.2 L and the half-life ([1]; Study-2 single dose, 60 mg QD cohort, geo mean (GeoCV%), read-out: t1/2 (converted)) was 18.1 h. It also gave a Tmax ([1]; Study-2 single dose, 60 mg QD cohort, median (range), read-out: tmax) of 3 h, an AUC [1, 7] of 34900 ng·h/mL and an MRT [1, 7] of 22.4 h. It also gave a Cmax ([1]; Study-2 single dose, 90 mg QD cohort, geo mean (GeoCV%), read-out: Cmax) of 1510 ng/mL, a Vd/F [1, 7] of 77.3 L and a half-life ([1]; Study-2 single dose, 90 mg QD cohort, geo mean (GeoCV%), read-out: t1/2 (converted)) of 20.8 h. For the same compound, the Tmax ([1]; Study-2 single dose, 90 mg QD cohort, median (range), read-out: tmax) was 4 h, the Deaths ([2]; seletalisib total) was 0 n (%) and the Deaths ([2]; single dose 1 mg) was 0 n (%). For the same compound, the Deaths ([2]; single dose 5 mg) was 0 n (%), the Deaths ([2]; single dose 5 mg fed) was 0 n (%) and the Deaths ([2]; single dose 10 mg) was 0 n (%). For the same compound, the Deaths ([2]; single dose 15 mg) was 0 n (%), the “Any AE” value ([2]; human, in vivo) was 13 (39.4) n (%) and the “Discontinuations due to AEs” value ([2]; human, in vivo) was 0 n (%). For the same compound, the “Drug-related AEs” value ([2]; human, in vivo) was 2 (6.1) n (%), the Headache ([2]; human, in vivo) was 4 (12.1) n (%) and the “Serious AEs” value ([2]; human, in vivo) was 0 n (%). For the same compound, the “Severe AEs” value ([2]; human, in vivo) was 0 n (%), the “number of moderate-intensity AEs” value ([2]; in vivo) was “three” and the “inhibition of basophil degranulation compared with placebo” value [3] was “inhibition of basophil degranulation was observed in all seletalisib-treated groups”.

From PMC5384962, “First-in-human studies of seletalisib, an orally bioavailable small-molecule PI3Kδ inhibitor for the treatment of immune and inflammatory diseases” (European Journal of Clinical Pharmacology, 2017)
